One test has as its system Mrgprs. Put plainly: Ca2+ imaging screen of HEK293 cells transiently expressing other Mrgprs (MRGPRA3, MRGPRD, MRGPRX1, MRGPRX2 and others). The test is classed as cell-based. The settings on record: 50 µM bilirubin, 12 Mrgprs screened. As for the experimental part: All cultured cells were maintained in DMEM supplemented with 10% FBS and 1% Penicillin/Streptomycin at 37°C, 5% CO2. All data included were generated from cells tested for mycoplasma and found to be negative. Cells were imaged in calcium imaging buffer (CIB; 10 mM HEPES, 1.2 mM NaHCO3, 130 mM NaCl, 3 mM KCl, 2.5 mM CaCl2, 0.6 mM MgCl2, 20 mM glucose, and 20 mM sucrose at pH 7.4 and 290–300 mOsm). To monitor changes in intracellular [Ca^2+] ([Ca^2+]i), cells were loaded with either Fura 2-AM (HEK293 cells) or Fluo 4-AM (DRG neurons and mast cells) for 30 min in the dark at 37°C in CIB just prior to imaging. With Fura 2-AM, emission at 510 nm was monitored from excitation at both 340 nm and 380 nm. With Fluo 4-AM, emission at 520 nm was monitored from excitation at 488 nm. Cells were identified as responding if the intracellular [Ca^2+] rose by either 50% compared to baseline or 50% compared to the [Ca^2+]i change assayed during addition of 50 mM KCl (neurons only). […]
In initial screens, HEK293 cells stably expressing the murine G-protein alpha-subunit Gα15, a unique Gα protein that non-selectively couples a large variety of GPCRs to phospholipase C ^30, were plated on poly-D-lysine-coated coverslips and transiently transfected with constructs encoding the MRGRPR of interest. […] Response was then monitored at 5 s intervals for an additional 60 s.

The target of test [1] is T1, MRGPRC11 (Mus musculus, UniProt Q8CIP3).
T1 construct: expressed in transfected cells
T1 sequence (Q8CIP3 1-322): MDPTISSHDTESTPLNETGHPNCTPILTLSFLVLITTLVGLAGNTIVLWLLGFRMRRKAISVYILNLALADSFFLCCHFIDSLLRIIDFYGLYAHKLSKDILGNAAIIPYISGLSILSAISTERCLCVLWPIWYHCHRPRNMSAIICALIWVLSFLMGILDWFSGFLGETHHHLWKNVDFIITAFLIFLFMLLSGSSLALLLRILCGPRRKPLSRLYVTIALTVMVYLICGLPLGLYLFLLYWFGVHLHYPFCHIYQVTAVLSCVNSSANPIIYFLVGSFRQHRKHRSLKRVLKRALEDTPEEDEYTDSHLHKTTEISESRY
As to the kind of experiment: Microscale thermophoresis binding to MRGPRC11. The settings on record: for microscale thermophoresis response (binding isotherm), mean: mean of n=3, Fig 2-O. As for the experimental part:
Binding isotherms for MRGPRA1, MRGPRX4, and MRGRPC11 towards various ligands were determined by microscale thermophoresis with the NanoTemper monolith NT.115 instrument ([Duhr and Braun, 2006]). Ligands were pre-incubated with 10 µM of the GFP-tagged receptor of interest for 5 min at room temperature in binding buffer (20 mM Tris and 150 mM NaCl at pH 8.8). Receptors were crudely purified as a membrane fraction from cells stably expressing the receptor ([Vasavda et al., 2017]). Haem metabolites were freshly dissolved in 0.1 M NaOH in dim light and then diluted into assay buffer. Lyophilized BAM8-22 was dissolved in binding buffer. The pH of each ligand was evaluated prior to incubation with a receptor. Samples were loaded into NT.115 Hydrophobic-Treated Capillaries from NanoTemper. Microscale thermophoretic experiments were executed using 20% LED power and 15% MST power. KDs were calculated using the law of mass action with data from three independent experiments. Binding between bilirubin and receptors was evaluated purely thermophoretically, whereas binding between BAM8-22 and MRGPRC11 was evaluated by T-Jump. Samples with dramatic deviations in initial fluorescence were excluded.
(MST reads how a fluorescent partner responds to local heating, with and without ligand.)

Test [2] deals with T1, MRGPRC11. As to the kind of experiment: [35S]GTPγS binding to MRGPRC11 membrane complexes. The test is classed as biochemical. Conditions: 50 μM bilirubin. As for the experimental part: MRGPR activation was determined by measuring binding of a radiolabelled and non-hydrolyzable form of GTP, [^35S]guanosine-5’-(γ-thio)triphosphate ([^35S]GTPγS) as previously described ([Vasavda et al., 2017]). Briefly, 10 µg of crude membrane fractions were diluted into 175 µL assay buffer (50 mM HEPES, 5 mM MgCl2, 100 mM NaCl, 1 mM EDTA, 0.1% […]) supplemented with 10 µM GDP and incubated at room temperature for 5 min. Membranes were then incubated an additional 1 min in a final volume of 199 μL assay buffer supplemented with 50 μM bilirubin. Samples were then brought to 200 μL with the addition of 10 nM [^35S]GTPγS. Samples were incubated for 2 hr at 4°C with gentle agitation. The experiment was terminated by rapid filtration onto GF/B filters and washed three times with wash buffer (50 mM Tris-HCl, 5 mM MgCl2, and 50 mM NaCl at pH 7.4). Filters were then immersed in scintillation cocktail and counted. Nonspecific binding was determined by competition with 10 μM unlabelled GTPγS. GTPγS binding assays were performed as two independent experiments, in triplicate.
(In general: GTPγS resists hydrolysis and so accumulates on activated G proteins.)

Where “and” joins values, the source holds several entries; their conditions need not be identical. Identical values can stand only once.

As for `C=CC1=C(C)/C(=C/c2[nH]c(Cc3[nH]c(/C=C4\NC(=O)C(C)=C4C=C)c(C)c3CCC(=O)O)c(CCC(=O)O)c2C)NC1=O` [bilirubin, bilirubin IXα], the “Calcium response of other Mrgprs to bilirubin” value in the test on Mrgprs is “No other Mrgpr among the 12 that we screened responded”. For the same molecule, the “microscale thermophoresis response (binding isotherm), mean” value (shortened to “microscale thermophoresis response”) at MRGPRC11 [1] ([Ligand] 3.05e-8 M) was 2.385e-5; at MRGPRC11 [1] ([Ligand] 6.1e-8 M), 4.712e-5; at MRGPRC11 [1] ([Ligand] 1.221e-7 M), 4.182e-5; on MRGPRC11 [1] ([Ligand] 2.441e-7 M), 4.08e-5; on MRGPRC11 [1] ([Ligand] 4.883e-7 M), 5.536e-5; on MRGPRC11 [1] ([Ligand] 9.766e-7 M), 1.928e-5. Further, the “microscale thermophoresis response” value is -5.329e-6 on MRGPRC11 [1] ([Ligand] 1.9531e-6 M); -1.57e-5 on MRGPRC11 [1] ([Ligand] 3.9063e-6 M); -3.808e-5 on MRGPRC11 [1] ([Ligand] 7.8125e-6 M); -4.952e-5 on MRGPRC11 [1] ([Ligand] 1.5625e-5 M); -4.222e-5 on MRGPRC11 [1] ([Ligand] 3.125e-5 M); 5.5228e-6 at MRGPRC11 [1] ([Ligand] 6.25e-5 M). The “microscale thermophoresis response” value is given as 4.793e-5 on MRGPRC11 [1] ([Ligand] 0.000125 M), 9.26e-5 at MRGPRC11 [1] ([Ligand] 0.00025 M) and 0.0002843 on MRGPRC11 [1] ([Ligand] 0.0005 M). Moreover, the “Affinity for MRGPRC11” value on MRGPRC11 [1] (microscale thermophoresis) is “little to no affinity”. Further, at MRGPRC11 [2], the “GTP binding to MRGPRC11 membrane complexes” value is given as “not to MRGPRC11”. In addition, at MRGPRC11 [2] (MRGPRC11 membrane complexes (Fig 2K)), the “[35S]GTPγS binding” value is 75 and 84 and 78.

(Values after PMC6368403, “Identification of a bilirubin receptor that may mediate a component of cholestatic itch” (eLife, 2019).)
